According to patent publication US20230242843A1, “GREEN SOLVENT, LAUNDRY COMPOSITION COMPRISING SAME, AND WASHING MACHINE” (LG HOUSEHOLD & HEALTH CARE LTD., priority 2020, published 2023):

Columns and labels:
[1] = log P (octanol-water fractionation coefficient); settings: for logP: octanol/water
[2] = Composition identification of the solvent after 30 times of washing with solvent reuse; assay type: physicochemical; settings: for Content in solvent collected in the solvent storage tank after final washing: initial 96.0 wt %
Description: The washing machines according to Examples and Comparative Examples according to the present disclosure were prepared, and washing was performed under the same conditions. The same type of fibers was put into each washing machine, and a composition including a compound according to the Chemical Formula 1 (wherein R1 and R2 are alkyl having 1 carbon atom, and R3 is hydrogen) was used as a laundry solvent.
At the first washing, the solvent was supplied, the washing was performed for 15 minutes, the solvent was collected while undergoing a drying process, another fiber was put into the washing machine, and the collected solvent was re-supplied for washing. 30 times of washing in total were performed in the same way, without replacement of the solvent storage tank or cartridge during the washing process.

Row | SMILES | logP [1] | other results
1 | OCCO [Ethylene glycol, reference compound] | -1.93 | –
2 | Cc1cc(O)c(C)c(O)c1C(=O)O [2,4-Dihydroxy-3,6-dimethylbenzoic acid] | 2.19 | –
3 | CCOC(=O)c1ccccc1C(=O)O [2-(ethoxycarbonyl)benzoic acid] | 1.8 | –
4 | CCCCOCCOCCO [2-(2-butoxyethoxy)ethanol] | 0.65 | –
5 | CC(C)=CCC/C(C)=C/CO [Geraniol] | 3.47 | –
6 | CC1(C)OCC(CO)O1 (stereo not drawn) [Chemical Formula 1, solketal] | – | Amount decomposed into acetone and glycerol ([2]; 30 washings, conventional washing machine (Comparative Example 2-1)): approximately 30 wt %; Content in solvent collected in the solvent storage tank after final washing ([2]; 30 washings, washing machine of Comparative Example 2-1 (conventional)): 69.0 wt %; Content in solvent collected in the solvent storage tank after final washing ([2]; 30 washings, washing machine of Example 2-1): 91.4 wt %; Content in solvent collected in the solvent storage tank after final washing ([2]; 30 washings, washing machine of Example 2-2): 92.7 wt %; Content in solvent collected in the solvent storage tank after final washing ([2]; 30 washings, washing machine of Example 2-3): 94.1 wt %; Content in solvent collected in the solvent storage tank after final washing ([2]; 30 washings, washing machine of Example 2-4): 94.9 wt %; Content in solvent collected in the solvent storage tank after final washing ([2]; 30 washings, washing machine of Example 2-5): 95.5 wt %; Amount decomposed ([2]; after 30 times of washing, washing machine according to an example embodiment): less than 10 wt %; Log P ([1]; octanol-water): approximately 1.07

Continued, in another order:

Row | logP [1] | SMILES | other results
7 | 4.68 | CCCCCCC(C=O)=Cc1ccccc1 [Alpha-hexyl cinnamaldehyde, reference compound] | –
8 | 0.71 | COc1cc(C=O)ccc1O [Vanillin] | –
9 | 1.13 | Oc1cccc(O)c1 [Resorcinol] | –
10 | 1.63 | Cc1nc(N(C)C)nc(O)c1C [2-(dimethylamino)-5,6-dimethylpyrimidin-4-ol] | –
